Test results taken from patent publication US4107297A, “Antibiotic compound” (The Kitasato Institute, priority 1976, dated 1978).
Converted amounts (≈) assume the structure as drawn. “And” between values parts separate entries of the source, which are not always exact repeats. Equal values may be shown once. Where a name gives a salt, the structure may show the parent alone.

Legend:
Xanthomonas oryzae = experiment: microbe, parasite or virus in culture; assay type: cell-based; conditions: pH 7
[1] = solubility in various solvent; assay type: physicochemical
[2] = acute toxicity in mice (Behrens-Karber method); conditions: mouse, in vivo, ip.
edema and ulcer = experiment: activity on edema and ulcer in rats; assay type: in vivo
Experimental: The present antibiotic substance is a basic nitrogen-containing compound, viz. a so-called alkaloid-like substance. […] The minimum effective concentration is established to be 1.0 mg/kg.

Cryptococcus neoformans = experiment: antifungal activity, MIC by agar dilution method; assay type: cell-based; conditions: medium P, pH 6.8
Source text: (§1) Table 1 indicates the antibacterial and antifungal activity of AM-2282 in terms of the minimum inhibitory concentration (mcg/ml) determined by agar dilution method.
(§2) P: Potato extract containing glucose 1.0 % W/V and agar 1.2 % W/V, pH 6.8

Candida pseudotropicalis = experiment: antifungal activity, MIC by agar dilution method; assay type: cell-based; conditions: Kluyveromyces marxianus, medium P, pH 6.8
Source text: as §1, §2

Trichophyton rubrum = experiment: antifungal activity, MIC by agar dilution method; assay type: cell-based; conditions: medium P, pH 6.8
Source text: as §1, §2

Saccharomyces sake = experiment: antifungal activity, MIC by agar dilution method; assay type: cell-based; conditions: medium P, pH 6.8
Source text: as §1, §2

Aspergillus niger = experiment: antifungal activity, MIC by agar dilution method; assay type: cell-based; conditions: medium P, pH 6.8
Source text: as §1, §2

Microsporum gipseum = experiment: antifungal activity, MIC by agar dilution method; assay type: cell-based; conditions: medium P, pH 6.8
Source text: as §1, §2

Sclerotinia cinerea = experiment: antifungal activity, MIC by agar dilution method; assay type: cell-based; conditions: medium P, pH 6.8
Source text: as §1, §2

[3] = test system: Trichophyton mentagrophytes; experiment: antifungal activity, MIC by agar dilution method; assay type: cell-based; conditions: medium P, pH 6.8
Source text: as §1, §2

Aspergillus brevipus = experiment: antifungal activity, MIC by agar dilution method; assay type: cell-based; conditions: medium P, pH 6.8
Source text: as §1, §2

Aspergillus fumigatus = experiment: antifungal activity, MIC by agar dilution method; assay type: cell-based; conditions: medium P, pH 6.8
Source text: as §1, §2

Candida albicans = experiment: antifungal activity, MIC by agar dilution method; assay type: cell-based; conditions: medium P, pH 6.8
Source text: as §1, §2

Piricularia oryzae = experiment: microbe, parasite or virus in culture; assay type: cell-based; conditions: pH 6.8
[4] = test system: Bacillus substilis PCI 219; experiment: antibacterial activity, MIC by agar dilution method; assay type: cell-based; conditions: PCI219, medium N, pH 7.0
Source text: as §1
(§3) *N: Peptone 0.5 % W/V, meat extract 0.5 % W/V, agar 1.2 % W/V, pH 7.0.

Escherichia coli NIJH = experiment: as above; assay type: cell-based; conditions: medium N, pH 7.0
Source text: as §1, §3

[5] = test system: Pseudomonas aeruginosa P-3; experiment: as above; assay type: cell-based; conditions: P3, medium N, pH 7.0
Source text: as §1, §3

[6] = test system: Staphylococcus aureus FDA 209P; experiment: as above; assay type: cell-based; conditions: FDA209P, medium N, pH 7.0
Source text: as §1, §3

[7] = test system: Proteus vulgaris IFO 3167; experiment: as above; assay type: cell-based; conditions: IFO3167, medium N, pH 7.0
Source text: as §1, §3

Sarcina lutea PCI 1001 = experiment: as above; assay type: cell-based; conditions: Micrococcus luteus, PCI1001, medium N, pH 7.0
Source text: as §1, §3

[8] = test system: Mycobacterium Smegmatis ATCC 607; experiment: as above; assay type: cell-based; conditions: Mycolicibacterium smegmatis, ATCC607, medium N, pH 7.0
Source text: as §1, §3

[9] = test system: arteriolar pressure (systolic) in the tail; experiment: test for hypertensive effect in rats disposed to spontaneous hypertension

For `CN[C@@H]1CC2O[C@@](C)([C@@H]1OC)n1c3ccccc3c3c4c(c5c6ccccc6n2c5c31)C(=O)NC4` [AM-2282], which MIC (Xanthomonas oryzae) is on record?
Its MIC is 200 µg/mL (≈ 429 µM).

What about the Solubility ([1]; in chloroform) of the same compound?
The Solubility was “Sparingly soluble”.

What about the Solubility ([1]; in dimethyl formamide) of the same compound?
The Solubility was “Soluble”.

And the Solubility ([1]; in dimethyl sulfoxide)?
Its Solubility is “Soluble”.

And the Solubility ([1]; in ethyl acetate)?
Its Solubility is “Sparingly soluble”.

What about the Solubility ([1]; in fat) of the same compound?
Its Solubility is “soluble in fat”.

What about the Solubility ([1]; in methanol) of the same compound?
The Solubility was “Sparingly soluble”.

And the Solubility ([1]; in n-butyl acetate)?
The Solubility was “Sparingly soluble”.

And the Solubility ([1]; in n-hexane)?
Its Solubility is “Insoluble”.

And the Solubility ([1]; in petroleum ether)?
Its Solubility is “Insoluble”.

And the Solubility ([1]; in water)?
Its Solubility is “Insoluble”.

And the LD50 [2]?
Its LD50 is 6.6 mg/kg.

What about the minimal effective dose (edema and ulcer; Rattus norvegicus, read-out: minimum effective concentration (activity on edema and ulcer)) of the same compound?
The minimal effective dose was 1 mg/kg.

What about the “activity on edema and ulcer” value (edema and ulcer; rats) of the same compound?
Its value is “exhibit an activity on edema and ulcer”.

And the MIC (Cryptococcus neoformans)?
The MIC was 50 µg/mL (≈ 107 µM).

And the MIC (Candida pseudotropicalis)?
Its MIC is 3.12 µg/mL (≈ 6.69 µM).

What about the MIC (Trichophyton rubrum) of the same compound?
Its MIC is 6.25 µg/mL (≈ 13.4 µM).

What about the MIC (Saccharomyces sake) of the same compound?
The MIC was 3.12 µg/mL (≈ 6.69 µM).

What about the MIC (Aspergillus niger) of the same compound?
Its MIC is 25 µg/mL (≈ 53.6 µM).

And the MIC (Microsporum gipseum)?
Its MIC is > 100 µg/mL.

And the MIC (Sclerotinia cinerea)?
Its MIC is 0.78 µg/mL (≈ 1.67 µM).

What about the MIC [3] of the same compound?
Its MIC is 25 µg/mL (≈ 53.6 µM).

What about the MIC (Aspergillus brevipus) of the same compound?
Its MIC is 3.12 µg/mL (≈ 6.69 µM).

And the MIC (Aspergillus fumigatus)?
The MIC was 12.5 µg/mL (≈ 26.8 µM).

And the MIC (Candida albicans)?
Its MIC is 6.25 µg/mL (≈ 13.4 µM).

And the MIC (Piricularia oryzae)?
The MIC was 0.78 µg/mL (≈ 1.67 µM).

What about the MIC [4] of the same compound?
The MIC was > 200 µg/mL.

And the MIC (Escherichia coli NIJH)?
The MIC was > 200 µg/mL.

And the MIC [5]?
The MIC was > 200 µg/mL.

And the MIC [6]?
The MIC was > 200 µg/mL.

And the MIC [7]?
The MIC was > 200 µg/mL.

What about the MIC (Sarcina lutea PCI 1001) of the same compound?
Its MIC is 25 µg/mL (≈ 53.6 µM).

And the MIC [8]?
The MIC was 50 µg/mL (≈ 107 µM).

Which “Degree of hypertension (%)” value ([9]; 0.16 mg/kg, oral, after 1 hr) does the source give for `CN[C@@H]1CC2O[C@@](C)([C@@H]1OC)n1c3ccccc3c3c4c(c5c6ccccc6n2c5c31)C(=O)NC4` [Hydrochloride of AM-2282] here?
Its value is -2% and 2%.

And the “Degree of hypertension (%)” value ([9]; 0.16 mg/kg, oral, after 3 hrs)?
The value was 1% and 2%.

And the “Degree of hypertension (%)” value ([9]; 0.16 mg/kg, oral, after 5 hrs)?
Its value is 1% and 2%.

What about the “Degree of hypertension (%)” value ([9]; 0.3 mg/kg, oral, after 3 hrs) of the same compound?
Its value is 23% and 13%.

What about the “Degree of hypertension (%)” value ([9]; 0.3 mg/kg, oral, after 5 hrs) of the same compound?
Its value is 11% and 12%.

And the “Degree of hypertension (%)” value ([9]; 0.63 mg/kg, oral, after 1 hr)?
The value was 13% and 17%.

And the “Degree of hypertension (%)” value ([9]; 0.63 mg/kg, oral, after 3 hrs)?
Its value is 13% and 24%.

And the “Degree of hypertension (%)” value ([9]; 0.63 mg/kg, oral, after 5 hrs)?
Its value is 25% and 24%.

And the “Degree of hypertension (%)” value ([9]; 1.25 mg/kg, oral, after 1 hr)?
The value was 15% and 18%.

And the “Degree of hypertension (%)” value ([9]; 1.25 mg/kg, oral, after 3 hrs)?
Its value is 23% and 25%.

And the “Degree of hypertension (%)” value ([9]; 1.25 mg/kg, oral, after 5 hrs)?
The value was 31% and 39%.

And the minimal effective dose ([9]; Rattus norvegicus, po, read-out: minimum dose rate at which the hypertensive effect appears)?
The minimal effective dose was 0.3 mg/kg.

For `CC(N)(Cc1ccc(O)c(O)c1)C(=O)O` (stereo not drawn) [α-methyl DOPA, reference compound], which “Degree of hypertension (%)” value ([9]; 100 mg/kg, after 1 hr) is on record?
The value was 7%.

What about the “Degree of hypertension (%)” value ([9]; 100 mg/kg, after 3 hrs) of the same compound?
Its value is 13%.

What about the “Degree of hypertension (%)” value ([9]; 100 mg/kg, after 5 hrs) of the same compound?
Its value is 13%.
